The target in one assay is T1, Adenosine receptor A3 (Homo sapiens, UniProt P0DMS8).
T1 sequence (P0DMS8 whole entry): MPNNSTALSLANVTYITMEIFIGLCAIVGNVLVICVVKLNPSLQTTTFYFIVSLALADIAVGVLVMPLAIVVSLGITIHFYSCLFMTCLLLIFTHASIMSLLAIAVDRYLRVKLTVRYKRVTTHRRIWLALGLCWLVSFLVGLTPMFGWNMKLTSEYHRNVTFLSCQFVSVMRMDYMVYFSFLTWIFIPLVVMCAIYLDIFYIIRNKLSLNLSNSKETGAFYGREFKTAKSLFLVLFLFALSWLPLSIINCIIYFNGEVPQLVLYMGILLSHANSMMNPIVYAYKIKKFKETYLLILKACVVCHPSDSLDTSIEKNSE

The target in assay [1] is T2, Alpha-2A adrenergic receptor (Homo sapiens, UniProt P08913).
T2 sequence (P08913 whole entry): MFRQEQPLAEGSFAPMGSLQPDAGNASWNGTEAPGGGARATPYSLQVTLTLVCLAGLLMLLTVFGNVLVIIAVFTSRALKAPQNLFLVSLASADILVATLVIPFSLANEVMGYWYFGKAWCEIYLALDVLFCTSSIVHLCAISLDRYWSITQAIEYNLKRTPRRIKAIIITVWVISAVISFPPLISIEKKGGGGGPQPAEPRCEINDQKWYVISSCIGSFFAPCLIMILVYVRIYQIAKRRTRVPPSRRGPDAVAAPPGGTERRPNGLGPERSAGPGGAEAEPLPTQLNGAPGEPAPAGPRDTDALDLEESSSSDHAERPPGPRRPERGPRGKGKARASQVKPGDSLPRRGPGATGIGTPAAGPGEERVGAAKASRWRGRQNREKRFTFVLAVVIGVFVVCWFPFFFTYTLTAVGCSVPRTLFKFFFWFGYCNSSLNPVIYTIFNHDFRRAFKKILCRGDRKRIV
It is filed as functional, cell-based.

The target in assay [2] is Neuronal acetylcholine receptor subunit alpha-4 (Homo sapiens, UniProt P43681).
Assay [3] concerns the target Growth hormone secretagogue receptor type 1 (Homo sapiens, UniProt Q92847).
The target of assay [4] is Glutamate receptor ionotropic, NMDA 1 (Rattus norvegicus, UniProt P35439).
In assay [5] the target is T3, 5-hydroxytryptamine receptor 1A (Homo sapiens, UniProt P08908).
T3 sequence (P08908 whole entry): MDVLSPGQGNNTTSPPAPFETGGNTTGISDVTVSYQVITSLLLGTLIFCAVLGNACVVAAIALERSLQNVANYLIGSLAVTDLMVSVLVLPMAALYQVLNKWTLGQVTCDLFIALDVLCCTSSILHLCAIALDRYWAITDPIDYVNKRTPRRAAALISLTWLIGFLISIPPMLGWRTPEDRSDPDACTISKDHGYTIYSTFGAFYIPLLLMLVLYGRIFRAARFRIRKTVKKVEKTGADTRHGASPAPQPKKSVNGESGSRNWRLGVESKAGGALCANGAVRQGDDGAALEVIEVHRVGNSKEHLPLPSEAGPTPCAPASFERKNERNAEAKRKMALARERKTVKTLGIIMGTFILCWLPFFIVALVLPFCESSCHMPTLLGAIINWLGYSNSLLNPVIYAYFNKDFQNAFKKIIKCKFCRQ
It is filed as functional, cell-based.

In assay [6] the target is Kappa-type opioid receptor (Homo sapiens, UniProt P41145).
Assay [7] has as its target T4, Amine oxidase [flavin-containing] A (Homo sapiens, UniProt P21397).
T4 sequence (P21397 whole entry): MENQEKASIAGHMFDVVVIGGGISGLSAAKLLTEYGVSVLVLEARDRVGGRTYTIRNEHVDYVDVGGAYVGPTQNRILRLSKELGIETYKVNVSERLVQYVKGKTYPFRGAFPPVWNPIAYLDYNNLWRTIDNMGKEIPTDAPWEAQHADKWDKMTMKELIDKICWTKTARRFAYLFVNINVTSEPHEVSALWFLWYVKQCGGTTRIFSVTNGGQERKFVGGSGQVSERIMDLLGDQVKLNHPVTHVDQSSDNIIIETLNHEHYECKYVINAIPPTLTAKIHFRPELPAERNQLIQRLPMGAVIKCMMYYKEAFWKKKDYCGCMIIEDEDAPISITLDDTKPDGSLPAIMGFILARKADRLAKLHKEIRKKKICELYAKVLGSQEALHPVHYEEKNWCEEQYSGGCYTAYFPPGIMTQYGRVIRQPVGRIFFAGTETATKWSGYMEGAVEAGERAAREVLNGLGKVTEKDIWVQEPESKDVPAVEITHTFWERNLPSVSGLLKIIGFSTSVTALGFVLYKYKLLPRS
The class given is functional.

For a further assay, the target named is D(3) dopamine receptor (Homo sapiens, UniProt P35462).
Further: assay procedure not described here.

Sequence of D(3) dopamine receptor (P35462 whole entry): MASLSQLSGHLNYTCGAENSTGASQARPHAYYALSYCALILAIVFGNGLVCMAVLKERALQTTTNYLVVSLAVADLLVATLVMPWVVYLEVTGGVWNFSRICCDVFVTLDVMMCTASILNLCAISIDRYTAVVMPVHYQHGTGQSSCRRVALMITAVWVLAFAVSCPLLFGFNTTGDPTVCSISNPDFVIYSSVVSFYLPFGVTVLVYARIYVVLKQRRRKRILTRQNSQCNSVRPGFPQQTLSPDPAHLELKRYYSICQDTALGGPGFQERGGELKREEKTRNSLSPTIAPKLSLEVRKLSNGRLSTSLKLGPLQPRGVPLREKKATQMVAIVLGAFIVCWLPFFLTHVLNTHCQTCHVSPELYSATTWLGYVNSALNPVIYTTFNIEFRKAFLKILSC
Sequence of Neuronal acetylcholine receptor subunit alpha-4 (P43681 whole entry): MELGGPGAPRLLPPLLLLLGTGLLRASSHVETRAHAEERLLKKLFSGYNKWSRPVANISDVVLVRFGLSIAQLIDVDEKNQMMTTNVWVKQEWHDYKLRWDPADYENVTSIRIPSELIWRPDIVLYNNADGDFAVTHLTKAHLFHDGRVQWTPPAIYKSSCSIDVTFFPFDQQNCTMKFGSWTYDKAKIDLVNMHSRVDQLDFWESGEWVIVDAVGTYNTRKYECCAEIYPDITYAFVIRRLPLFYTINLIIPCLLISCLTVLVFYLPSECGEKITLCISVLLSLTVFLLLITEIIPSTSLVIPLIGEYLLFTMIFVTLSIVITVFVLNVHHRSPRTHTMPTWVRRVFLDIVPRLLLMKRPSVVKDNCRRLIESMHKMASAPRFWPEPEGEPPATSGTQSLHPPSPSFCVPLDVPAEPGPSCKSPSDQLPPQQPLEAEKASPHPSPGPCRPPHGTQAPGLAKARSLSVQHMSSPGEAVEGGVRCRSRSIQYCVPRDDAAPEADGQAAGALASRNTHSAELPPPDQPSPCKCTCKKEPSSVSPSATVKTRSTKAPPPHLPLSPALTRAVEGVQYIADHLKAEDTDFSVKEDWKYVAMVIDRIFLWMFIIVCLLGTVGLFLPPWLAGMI
Sequence of Growth hormone secretagogue receptor type 1 (Q92847 whole entry): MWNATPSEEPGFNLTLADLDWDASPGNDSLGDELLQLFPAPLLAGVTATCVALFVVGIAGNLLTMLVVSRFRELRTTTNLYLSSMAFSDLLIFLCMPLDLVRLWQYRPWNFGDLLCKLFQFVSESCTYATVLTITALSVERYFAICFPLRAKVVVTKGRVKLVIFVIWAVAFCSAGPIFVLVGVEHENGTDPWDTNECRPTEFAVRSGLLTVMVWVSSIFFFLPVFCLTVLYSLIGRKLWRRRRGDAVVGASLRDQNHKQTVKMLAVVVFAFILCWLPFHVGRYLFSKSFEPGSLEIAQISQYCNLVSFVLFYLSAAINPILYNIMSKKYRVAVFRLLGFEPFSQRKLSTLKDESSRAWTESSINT
Sequence of Kappa-type opioid receptor (P41145 whole entry): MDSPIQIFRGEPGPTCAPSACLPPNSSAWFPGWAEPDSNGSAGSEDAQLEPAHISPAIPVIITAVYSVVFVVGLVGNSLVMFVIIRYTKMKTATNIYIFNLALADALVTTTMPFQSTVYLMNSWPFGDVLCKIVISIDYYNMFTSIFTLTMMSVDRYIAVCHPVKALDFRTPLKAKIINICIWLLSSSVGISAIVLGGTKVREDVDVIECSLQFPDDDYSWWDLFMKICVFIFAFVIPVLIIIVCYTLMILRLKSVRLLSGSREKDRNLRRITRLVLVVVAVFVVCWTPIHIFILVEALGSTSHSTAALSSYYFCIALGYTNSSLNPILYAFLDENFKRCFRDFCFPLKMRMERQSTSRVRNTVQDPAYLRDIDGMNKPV

The AC50 is the midpoint of the concentration-response curve, whichever way the signal moves. With `CC(C)(Oc1ccc(CCNC(=O)c2ccc(Cl)cc2)cc1)C(=O)O` [BEZAFIBRATE], the AC50 at Adenosine receptor A3 was greater than 10 µM; in assay [1], greater than 10 µM; in assay [2] it was greater than 10 µM; in [3], greater than 10 µM; in assay [4] it was greater than 10 µM; in [5] it was greater than 30 µM. The AC50 in [6] and in assay [7] was greater than 10 µM in each case.

On to `CC(O)(CS(=O)(=O)c1ccc(F)cc1)C(=O)Nc1ccc(C#N)c(C(F)(F)F)c1` (stereo not given) [BICALUTAMIDE], for which the AC50 at Adenosine receptor A3 was greater than 30 µM; in [1], greater than 10 µM; in [2], greater than 30 µM; on D(3) dopamine receptor, greater than 30 µM; in assay [3] it was 2.2 µM; in [4] it was greater than 10 µM. Also, the AC50 in [5], in assay [6] and in [7] was greater than 10 µM throughout.

Regarding `CC(=O)O[C@]1(C(C)=O)CC[C@H]2[C@@H]3C=C(Cl)C4=CC(=O)[C@@H]5C[C@@H]5[C@]4(C)[C@H]3CC[C@@]21C` [CYPROTERONE ACETATE], the AC50 on Adenosine receptor A3 was greater than 30 µM; in assay [2] it was greater than 10 µM; on D(3) dopamine receptor, greater than 30 µM; in [3], greater than 30 µM; in [4], greater than 10 µM; in assay [6], greater than 10 µM. Moreover, the concentration at half-maximal activity (AC50) in assay [7] is greater than 10 µM.

Turning to `C/C=C(/C(=C/C)c1ccc(O)cc1)c1ccc(O)cc1` [DIENESTROL], the AC50 on Adenosine receptor A3 is 7.3 µM; in assay [1], greater than 10 µM; in assay [2] it was greater than 10 µM; in assay [3], greater than 10 µM; in assay [4], greater than 10 µM; in assay [5], greater than 10 µM. In addition, the AC50 in assay [6] and in assay [7] was greater than 10 µM in each case.

In the case of `CC(O)(P(=O)(O)O)P(=O)(O)O` [ETIDRONIC ACID], the AC50 at D(3) dopamine receptor is greater than 30 µM.

In the case of `C[C@@H]1C[C@H]2[C@@H]3C[C@H](F)C4=CC(=O)C=C[C@]4(C)[C@@]3(F)[C@@H](O)C[C@]2(C)[C@@]1(OC(=O)c1ccco1)C(=O)SCF` [FLUTICASONE FUROATE], the AC50 at Adenosine receptor A3 was greater than 10 µM; in assay [1], greater than 10 µM; in [2], greater than 10 µM; on D(3) dopamine receptor, greater than 30 µM; in [3] it was greater than 10 µM; in [4], greater than 10 µM. In addition, the AC50 in assay [5], in assay [6] and in assay [7] was greater than 10 µM throughout.

As to `COc1ccc([C@@H]2CC(=O)c3c(O)cc(O)cc3O2)cc1O` [HESPERETIN], the AC50 (at Adenosine receptor A3; in assay [1]; in assay [2]; in [3]; in assay [4]; in assay [5]) was greater than 10 µM throughout. Also, the AC50 in assay [6] and in assay [7] was greater than 10 µM each time.

In the case of `CCC[C@@H]1C[C@@H](C(=O)N[C@@H]([C@H]2O[C@H](SC)[C@H](O)[C@@H](O)[C@H]2O)[C@@H](C)O)N(C)C1` [LINCOMYCIN], the AC50 is greater than 10 µM on Adenosine receptor A3; greater than 30 µM in assay [1]; greater than 10 µM in assay [2]; greater than 10 µM in assay [3]; greater than 10 µM in [4]; greater than 10 µM in [5]. Moreover, the AC50 in assay [6] and in assay [7] was greater than 10 µM each time.

For `COC(=O)C1=C(C)NC(C)=C(C(=O)OCCN2CCN(C(c3ccccc3)c3ccccc3)CC2)C1c1cccc([N+](=O)[O-])c1` (stereo not given) [MANIDIPINE 6300], the AC50 on Adenosine receptor A3 is 3.8 µM; in assay [1], greater than 30 µM; in assay [2] it was greater than 30 µM; in assay [3], greater than 30 µM; in assay [4], greater than 30 µM; in [5] it was greater than 30 µM. Besides, the AC50 in [6] was 7.9 µM; in [7], greater than 30 µM.

With `C=C1c2cccc(O)c2C(=O)C2=C(O)[C@]3(O)C(=O)C(C(N)=O)=C(O)[C@@H](N(C)C)[C@@H]3[C@@H](O)[C@H]12` [METHACYCLINE], the AC50 is greater than 30 µM on Adenosine receptor A3; greater than 10 µM in assay [1]; greater than 30 µM in assay [2]; greater than 30 µM in [3]; greater than 10 µM in assay [4]; greater than 10 µM in assay [5]. The AC50 in assay [6] and in assay [7] was greater than 10 µM throughout.

As to `CN(Cc1cnc2nc(N)nc(N)c2n1)c1ccc(C(=O)N[C@@H](CCC(=O)O)C(=O)O)cc1` [METHOTREXATE], the AC50 at Adenosine receptor A3 was greater than 30 µM; in assay [1], greater than 10 µM; in assay [2] it was greater than 10 µM; in assay [3] it was greater than 30 µM; in assay [4], greater than 10 µM; in [5], greater than 10 µM. Moreover, the AC50 in assay [6] and in assay [7] was greater than 10 µM in each case.

For the compound `Cc1ccccc1N1C(=O)c2cc(S(N)(=O)=O)c(Cl)cc2NC1C` (stereo not given) [METOLAZONE], the AC50 (at Adenosine receptor A3; in [1]; in assay [2]; in assay [3]; in [4]; in assay [5]) was greater than 10 µM each time. Besides, the AC50 in assay [6] and in assay [7] was greater than 10 µM in each case.

Regarding `O=C(O)c1cccnc1Nc1cccc(C(F)(F)F)c1` [NIFLUMIC ACID], the AC50 (at Adenosine receptor A3; in assay [1]; in assay [2]; in [3]; in assay [4]; in [5]) was greater than 10 µM each time. Moreover, the AC50 in assay [6] and in assay [7] was greater than 10 µM in each case.

In the case of `OC[C@H]1O[C@@H](n2cnc3c2NC=NC[C@H]3O)C[C@@H]1O` [PENTOSTATIN], the AC50 is 3.6 µM on Adenosine receptor A3; greater than 30 µM in [1]; greater than 30 µM in assay [2]; greater than 30 µM in assay [3]; greater than 30 µM in [4]; greater than 30 µM in assay [5]. Also, the AC50 in assay [6] and in [7] was greater than 30 µM each time.

As for `O=C1c2ccccc2C(=O)C1c1ccccc1` [PHENINDIONE], the AC50 on Adenosine receptor A3 was greater than 10 µM; in assay [1], greater than 10 µM; in assay [2] it was greater than 10 µM; in [3] it was greater than 10 µM; in assay [4] it was greater than 10 µM; in [5], greater than 30 µM. Further, the half-maximal activity concentration (AC50) in assay [6] and in [7] was greater than 10 µM each time.

Take `CN[C@@H](C)[C@@H](O)c1ccccc1` [PSEUDOEPHEDRINE]: the AC50 is greater than 30 µM on Adenosine receptor A3; greater than 10 µM in assay [1]; greater than 10 µM in [2]; greater than 30 µM in [3]; greater than 10 µM in assay [4]; greater than 10 µM in [5]. The AC50 in assay [6] and in assay [7] was greater than 10 µM each time.

`C[C@]12C=CC(=O)C=C1CC[C@@H]1[C@@H]2CC[C@]2(C)OC(=O)CC[C@@H]12` [TESTOLACTONE]: the AC50 on Adenosine receptor A3 is greater than 10 µM; in assay [1], greater than 30 µM; in assay [2], greater than 10 µM; in assay [3], greater than 10 µM; in assay [4] it was greater than 10 µM; in [5], greater than 10 µM. The AC50 in assay [6] and in assay [7] was greater than 10 µM throughout.

The record behind these values is ChEMBL document CHEMBL5291721, “A preclinical secondary pharmacology resource illuminates target-adverse drug reaction associations of marketed drugs” (Nat Commun, 2023).
